Laboratory results from patent US20070123586A1, “Nitroso derivatives of diphenylamine” (priority 2003, published 2007).

Key:
[1] = tested on: fatty Zucker rats; assay: Hypotriglyceridaemiant activity in fatty Zucker rats; format: in vivo, rat; conditions: 9-week-old male Zucker rats, 200 mg/kg/day p.o. for eight days, after fasting four hours
Experimental: The compounds were tested on fatty Zucker rats (Zucker L. M. et al., 1961, Fatty a new mutation in the rat, J. Hered., 52: 275-278). This animal is hyperphagic, obese and hyperinsulinaemic. It develops resistance to insulin, it is hyperlipidaemic, and has a large hypertriglyceridaemia.
9-week-old male Zucker rats were treated for eight days with the compounds of Example 2 and Example 5 at a dose of 200 mg/kg/day p.o. After fasting for four hours, a blood sample is taken to recover the plasma. […] The compound of Example 5 has a 21% […] effect (p<0.05) and reduces insulin by 45% (p<0.05).

[2] = tested on: Human LDLs; assay: Antioxidant effect: cupric ion-induced oxidation of human LDL (fluorescence); format: biochemical; conditions: human LDL 120 μg/ml, CuCl2, 37° C., fluorescence difference 2 h vs 24 h, from three concentrations
Experimental: Human LDLs placed in aqueous solution in the presence of cupric ions, become spontaneously oxidized on their protein component, apolipoprotein-B. This oxidation makes the particle fluorescent, which is exploited to measure a pharmacological effect.
The reactions and measurements are performed in black 96-well plates. 10 μl of a solution of the test product dissolved in dimethyl sulfoxide are first mixed with 170 μl of a solution of human LDL at a concentration of 120 μg/ml and 20 μl of 100 μM CuCl2. After stirring, the mixture is incubated for 2 hours at 37° C., and a first fluorescence reading is taken (excitation at 360 nm, reading at 460 nm). The mixture is then incubated for a further 22 hours, to take a second reading under the same conditions. The difference is proportionately smaller the greater the antioxidant power of the test product. Probucol is used as reference product at a concentration of 10 μM.
The concentrations that inhibit 50% (IC50) of the oxidation are prepared from three concentrations of the test product. They are given in Table II below for some of the compounds of the formula I given as examples below.

[3] = Spontaneous nitric oxide release: nitrites+nitrates titrated by Griess colorimetry with nitrate reductase; conditions: test product final concentration 150 μM, incubated four hours at 37° C., pH 7.5 PBS buffer, Griess reagent, OD 540 nm
Experimental: A solution of a compound of the invention of the formula I spontaneously releases nitric oxide. The nitrite ions resulting therefrom are titrated by colorimetry by means of a specific reagent (Griess). To take account of any release of nitrate ions in addition to the nitrite ions, bacterial nitrate reductase is added to the reaction medium, which makes it possible to reduce the nitrate ions formed.
The reactions and measurements are performed in transparent 96-well plates. The test products are dissolved extemporaneously at a concentration of 3 mM in dimethyl sulfoxide. 95 μl of a reagent comprising nitrate reductase (0.18 U/ml in 0.100 mM pH 7.5, PBS buffer, β-NADPH 210 μM, FAD 5 μM) and 5 μl of the solution of the test product (final concentration of 150 μM) are then introduced into each well. After stirring, the mixture is incubated for four hours at 37° C. The reaction is then quenched by addition of 100 μl of the Griess reagent (Sigma G4410). This reagent is left to act for five minutes at room temperature, and the optical density is then read at 540 nm. This value is proportional to the concentration of nitrites+nitrates in the medium. A calibration range is made for each plate using NaNO2.
The results are expressed in μmol/l (μM) of nitrites+nitrates released in Table I for some of the compounds of the formula I illustrated below.

melting point [°C] | SMILES | reduction in triglycerides (plasma) [1] [%] | reduction of insulinaemia (plasma insulin) [1] [%] | IC50 [2] [µM] | Nitrites—Nitrates released [3] [µM]
169 to 171 | COc1ccc(N(N=O)c2ccc(C(=O)O)cc2)cc1 [Example 2, 4-[(4-Methoxyphenyl)(nitroso)amino]benzoic acid] | 58 | 47 | 17 | 87
– | O=NN(c1ccc(C(=O)O)cc1)c1ccc(C(F)(F)F)cc1 [Example 5, 4-{Nitroso[4-(trifluoromethyl)phenyl]amino}benzoic acid] | 21 | 45 | – | 108
88 to 90 | COc1ccc(N(N=O)c2ccc(C#N)cc2)cc1 [Example 6, 4-[(4-Methoxyphenyl)(nitroso)amino]benzonitrile] | – | – | – | 43
– | COc1ccc(N(N=O)c2ccc(CO)cc2)cc1 [Example 8, {4-[(4-Methoxyphenyl)(nitroso)amino]phenyl}methanol] | – | – | 18.4 | 88
– | CCOC(=O)c1ccc(N(N=O)c2ccc(C#N)cc2)cc1 [Example 10] | – | – | 6.2 | 76
– | CCOC(=O)c1ccc(N(N=O)c2ccc(S(C)(=O)=O)cc2)cc1 [Example 12] | – | – | – | 38
– | O=NN(c1ccc(C(=O)O)cc1)c1ccc([N+](=O)[O-])cc1 [Example 13] | – | – | 4.6 | 86
– | N#Cc1ccc(N(N=O)c2ccc(C(=O)O)cc2)cc1 [Example 14] | – | – | – | 69
– | CS(=O)(=O)c1ccc(N(N=O)c2ccc(C(=O)O)cc2)cc1 [Example 15] | – | – | – | 88
– | COc1ccc(N(N=O)c2ccc(CC(=O)O)cc2)cc1 [Example 17] | – | – | 11.6 | 58
– | COc1ccc(N(N=O)c2ccc(C(C)=O)cc2)cc1 [Example 18] | – | – | – | 81
– | O=NN(c1ccc(F)cc1)c1ccc(C(=O)O)cc1 [Example 19] | – | – | – | 79
– | O=NN(c1ccc(C(=O)O)cc1)c1ccc(C(=O)O)cc1 [Example 30, 4,4′-(Nitrosoimino)dibenzoic acid] | – | – | – | 58
– | COc1ccc(N(N=O)c2ccc(C(N)=O)cc2)cc1 [Example 42] | – | – | – | 79
